What was measured:
[1] = test system: DENV-2 16681 strain; experiment: microbe, parasite or virus in culture; assay type: cell-based, Dengue virus; conditions: for EC50: DENV-2 16681 eGFP, Vero cells, MOI 0.5, 3 days; for SI: SI=CC50/EC50, DENV-2 antiviral assay
[2] = in vitro; conditions: African green monkey
[3] = Dengue virus, DENV2, Vero, 72 h

COc1cc(NC(C(=O)N2CCc3ccc(OC(F)(F)F)cc32)c2ccc(Cl)cc2)cc(OCC23CC(C(=O)O)(C2)C3)c1 (racemic) [Compound 9, 3-((3-((1-(4-chlorophenyl)-2-oxo-2-(6-(trifluoro-methoxy)indolin-1-yl)ethyl)amino)-5-methoxyphenoxy)methyl)bicyclo[1.1.1]pentane-1-carboxylic acid]
EC50 [1, 3]: 0.7 nM | SI [1]: 14700 | CC50 [2]: 9.8 µM

COc1cc(NC(C(=O)N2CCc3ccc(OC(F)(F)F)cc32)c2ccc(Cl)cc2)cc(OCCC(=O)O)c1 (racemic) [Compound 12, 3-(3-((1-(4-chlorophenyl)-2-oxo-2-(6-(trifluoromethoxy)indolin-1-yl)ethyl)amino)-5-methoxyphenoxy)propanoic acid]
EC50 [1, 3]: 1.1 nM | SI [1]: 9440 | CC50 [2]: 11 µM

COc1cc(NC(C(=O)N2CCc3ccc(OC(F)(F)F)cc32)c2ccc(Cl)cc2)cc(OCCCCC(=O)O)c1 (racemic) [Compound 13, 5-(3-((1-(4-chlorophenyl)-2-oxo-2-(6-(trifluoromethoxy)-indolin-1-yl)ethyl)amino)-5-methoxyphenoxy)pentanoic acid]
EC50 [1, 3]: 0.25 nM | SI [1]: 38100 | CC50 [2]: 12 µM

COc1cc(CCCCC(=O)O)cc(NC(C(=O)N2CCc3ccc(OC(F)(F)F)cc32)c2ccc(Cl)cc2)c1 (racemic) [Compound 14, 5-(3-((1-(4-chlorophenyl)-2-oxo-2-(6-(trifluoromethoxy)indolin-1-yl)ethyl)amino)-5-methoxyphenyl)pentanoic acid]
EC50 [1, 3]: 0.23 nM | SI [1]: 50200 | CC50 [2]: 9.6 µM

COc1cc(CCCC(=O)O)cc(NC(C(=O)N2CCc3ccc(OC(F)(F)F)cc32)c2ccc(Cl)cc2)c1 (racemic) [Compound 15, 4-(3-((1-(4-chlorophenyl)-2-oxo-2-(6-(trifluoromethoxy)indolin-1-yl)ethyl)amino)-5-methoxyphenyl)butanoic acid]
EC50 [1, 3]: 0.42 nM | SI [1]: 25500 | CC50 [2]: 8.3 µM

COc1cc(COCCC(=O)O)cc(NC(C(=O)N2CCc3ccc(OC(F)(F)F)cc32)c2ccc(Cl)cc2)c1 (racemic) [Compound 16, 3-((3-((1-(4-chlorophenyl)-2-oxo-2-(6-(trifluoromethoxy)indolin-1-yl)ethyl)amino)-5-methoxybenzyl)oxy)propanoic acid]
EC50 [1, 3]: 0.33 nM | SI [1]: 56100 | CC50 [2]: 16 µM

COc1cc(NC(C(=O)N2CCc3ccc(OC(F)(F)F)cc32)c2ccc(Cl)cc2OC)cc(OCCC(C)C(=O)O)c1 (racemic) [Compound 17, 4-(3-((1-(4-chloro-2-methoxyphenyl)-2-oxo-2-(6-(trifluoromethoxy)indolin-1-yl)ethyl)amino)-5-methoxyphenoxy)-2-methylbutanoic acid]
EC50 [1, 3]: 0.18 nM | SI [1]: 100043 | CC50 [2]: 13 µM

COc1cc(NC(C(=O)N2CCc3ccc(OC(F)(F)F)cc32)c2ccc(Cl)cc2OC)cc(OCCC(C)(C)C(=O)O)c1 (racemic) [Compound 18, 4-(3-((1-(4-chloro-2-methoxyphenyl)-2-oxo-2-(6-(trifluoromethoxy)indolin-1-yl)ethyl)amino)-5-methoxyphenoxy)-2,2-dimethylbutanoic acid]
EC50 [1, 3]: 0.49 nM | SI [1]: 26100 | CC50 [2]: 11 µM

COc1cc(NC(C(=O)N2CCc3cc(OC)c(C(F)(F)F)cc32)c2ccc(Cl)cc2)cc(OCCC(C)(C)C(=O)O)c1 (racemic) [Compound 21, 4-(3-((1-(4-chlorophenyl)-2-(5-methoxy-6-(trifluoromethyl)indolin-1-yl)-2-oxoethyl)amino)-5-methoxyphenoxy)-2,2-dimethylbutanoic acid]
EC50 [1, 3]: 1.1 nM | SI [1]: 11000 | CC50 [2]: 15 µM

COc1cc(NC(C(=O)N2CCc3ccc(OC(F)(F)F)cc32)c2ccc(Cl)cc2)cc(OCC(C)CC(=O)O)c1 (single isomer, unassigned) [Compound 4A]
EC50 [1]: 2.9 nM | SI [1]: 3090 | CC50 [2]: 9 µM

COc1cc(NC(C(=O)N2CCc3ccc(OC(F)(F)F)cc32)c2ccc(Cl)cc2)cc(OC23CC(C(=O)O)(C2)C3)c1 (single isomer, unassigned) [Compound 9A]
EC50 [1]: 90 nM | SI [1]: 125 | CC50 [2]: 11 µM

COc1cc(NC(C(=O)N2CCc3ccc(OC(F)(F)F)cc32)c2ccc(Cl)cc2)cc(OCCC(=O)O)c1 (single isomer, unassigned) [Compound 12A]
EC50 [1]: 38 nM | SI [1]: 267 | CC50 [2]: 10 µM

COc1cc(NC(C(=O)N2CCc3ccc(OC(F)(F)F)cc32)c2ccc(Cl)cc2)cc(OCCCCC(=O)O)c1 (single isomer, unassigned) [Compound 13A]
EC50 [1]: 1.4 nM | SI [1]: 5720 | CC50 [2]: 9.1 µM

COc1cc(CCCC(=O)O)cc(NC(C(=O)N2CCc3ccc(OC(F)(F)F)cc32)c2ccc(Cl)cc2)c1 (single isomer, unassigned) [Compound 15A]
EC50 [1]: 49 nM | SI [1]: 171 | CC50 [2]: 8.4 µM

COc1cc(NC(C(=O)N2CCc3ccc(OC(F)(F)F)cc32)c2ccc(Cl)cc2OC)cc(OCCC(C)C(=O)O)c1 (single isomer, unassigned) [Compound 17A]
EC50 [1]: 76 nM | SI [1]: 147 | CC50 [2]: 11 µM

COc1cc(NC(C(=O)N2CCc3ccc(OC(F)(F)F)cc32)c2ccc(Cl)cc2OC)cc(OCCC(C)(C)C(=O)O)c1 (single isomer, unassigned) [Compound 18A]
EC50 [1]: 9.9 nM | SI [1]: 1160 | CC50 [2]: 12 µM

COc1cc(NC(C(=O)N2CCc3cc(OC)c(C(F)(F)F)cc32)c2ccc(Cl)cc2)cc(OCCC(C)C(=O)O)c1 (single isomer, unassigned) [Compound 20A]
EC50 [1]: 440 nM | SI [1]: 27 | CC50 [2]: 12 µM

COc1cc(NC(C(=O)N2CCc3cc(OC)c(C(F)(F)F)cc32)c2ccc(Cl)cc2)cc(OCCC(C)(C)C(=O)O)c1 (single isomer, unassigned) [Compound 21A]
EC50 [1]: 16 nM | SI [1]: 687 | CC50 [2]: 11 µM

COc1cc(NC(C(=O)N2CCc3cc(F)c(OC(F)(F)F)cc32)c2ccc(Cl)cc2)cc(OCC2CC2C(=O)O)c1 (single isomer, unassigned) [Compound 26A, (1R*,2R*)-2-((3-((1-(4-chlorophenyl)-2-(5-fluoro-6-(trifluoromethoxy)indolin-1-yl)-2-oxoethyl)amino)-5-methoxyphenoxy)methyl)-cyclopropanecarboxylic Acid]
EC50 [1]: 0.1 nM | SI [1]: >12200 | CC50 [2]: 14 µM

COc1cc(NC2CC(C(=O)O)C2)cc(NC(C(=O)N2CCc3ccc(OC(F)(F)F)cc32)c2ccc(Cl)cc2)c1 (single isomer, unassigned) [Compound 33A]
EC50 [1]: 13 nM | SI [1]: 1110 | CC50 [2]: 17 µM

COc1cc(NC(C(=O)N2CCc3ccc(OC(F)(F)F)cc32)c2ccc(Cl)cc2)cc(OCC2CC2C(=O)O)c1 (stereo not drawn) [Compound 6AA]
EC50 [1]: 0.74 nM | SI [1]: 8870 | CC50 [2]: 8.3 µM

COc1cc(NC(C(=O)N2CCc3ccc(OC(F)(F)F)cc32)c2ccc(Cl)cc2)cc(OC2CC(C(=O)O)C2)c1 (stereo not drawn) [Compound 7]
EC50 [1]: 0.49 nM | SI [1]: 14600 | CC50 [2]: 12 µM

COc1cc(NC(C(=O)N2CCc3ccc(OC(F)(F)F)cc32)c2ccc(Cl)cc2)cc(OCC2CC(C(=O)O)C2)c1 (stereo not drawn) [Compound 10]
EC50 [1]: 0.27 nM | SI [1]: 44900 | CC50 [2]: 12 µM

COc1cc(NC(C(=O)N2CCc3ccc(OC(F)(F)F)cc32)c2ccc(Cl)cc2OC)cc(OCC2CC2C(=O)O)c1 (stereo not drawn) [Compound 19AA]
EC50 [1]: 10 nM | SI [1]: 1030 | CC50 [2]: 11 µM

COc1cc(NC(C(=O)N2CCc3cc(OC)c(C(F)(F)F)cc32)c2ccc(Cl)cc2)cc(OCC2CC2C(=O)O)c1 (stereo not drawn) [Compound 22AA]
EC50 [1]: 16 nM | SI [1]: 798 | CC50 [2]: 13 µM

COc1cc(NC(C(=O)N2CCc3cc(OC)c(C(F)(F)F)cc32)c2ccc(Cl)cc2)cc(O[C@H]2C[C@@H](C(=O)O)C2)c1 (stereo partly drawn) [Compound 23, (1s,3s)-3-(3-((1-(4-chlorophenyl)-2-(5-methoxy-6-(trifluoromethyl)indolin-1-yl)-2-oxoethyl)amino)-5-methoxyphenoxy)cyclobutene-carboxylic Acid]
EC50 [1, 3]: 0.093 nM | SI [1]: 116424 | CC50 [2]: 12 µM

COc1cc(NC(C(=O)N2CCc3cc(OC)c(C(F)(F)F)cc32)c2ccc(Cl)cc2)cc(OC2CC(C(=O)O)C2)c1 (stereo not drawn) [Compound 23A]
EC50 [1]: 34 nM | SI [1]: 321 | CC50 [2]: 11 µM

COc1cc(NC(C(=O)N2CCc3cc(OC)c(C(F)(F)F)cc32)c2ccc(Cl)cc2)cc(OCC2CC(C(=O)O)C2)c1 (stereo not drawn) [Compound 24, (1s,3s)-3-((3-((1-(4-chlorophenyl)-2-(5-methoxy-6-(trifluoromethyl)indolin-1-yl)-2-oxoethyl)amino)-5-methoxyphenoxy)methyl)-cyclobutanecarboxylic Acid]
EC50 [1]: 0.64 nM | SI [1]: 18300 | CC50 [2]: 12 µM

COc1cc(NC(C(=O)N2CCc3cc(F)c(OC(F)(F)F)cc32)c2ccc(Cl)cc2)cc(OC2CC(C(=O)O)C2)c1 (stereo not drawn) [Compound 27, ((1s,3s)-3-(3-((1-(4-chlorophenyl)-2-(5-fluoro-6-(trifluoromethoxy)indolin-1-yl)-2-oxoethyl)amino)-5-methoxyphenoxy)cyclobutene-carboxylic Acid]
EC50 [1]: 0.067 nM | SI [1]: 149640 | CC50 [2]: 13 µM

COc1cc(NC(C(=O)N2CCc3cc(OC)c(Cl)cc32)c2ccc(Cl)cc2)cc(OC2CC(C(=O)O)C2)c1 (stereo not drawn) [Compound 32, (1s,3s)-3-(3-((2-(6-chloro-5-methoxyindolin-1-yl)-1-(4-chlorophenyl)-2-oxoethyl)amino)-5-methoxyphenoxy)cyclobutanecarboxylic Acid]
EC50 [1]: 0.13 nM | SI [1]: 130935 | CC50 [2]: 15 µM

From patent US11407715B2, “Substituted indoline derivatives as dengue viral replication inhibitors” (JANSSEN PHARMACEUTICALS, INC., priority 2017, dated 2022)
